Where a name gives a salt, the structure may show the parent alone.
How the values were obtained:
human MC4 receptor [1] = molecular target: T1, human MC4 receptor (Homo sapiens, UniProt P32245); test: Affinity assay: displacement of [125I]-[Nle4,D-Phe7]-α-MSH binding to membranes of CHO-K1 cells expressing hMC4 (SPA); conditions: displacement of specific radioligand binding by 50%; radioligand 100 pM; read-out: IC50 with respect to the MC4 receptor
T1 construct: host or cells: CHO-K1
Experimental: This affinity assay is carried out by measuring the binding of [^125I]-[Nle^4-D-Phe^7]-[…]-MSH to cell membranes. The displacement of this radioligand is used to identify inhibitors of the specific binding to recombinant melanocortin receptors.
For this assay, membranes prepared from CHO-K1 cells expressing the human MC4 receptor at high density (Euroscreen) or membranes, that were purchased (Perkin Elmer Life Sciences, Receptor Biology), of HEK-293 cells expressing hMC3 receptors were used. CHO-K1 cells transfected with the hMC4 receptor gene (Euroscreen) are seeded into DMEM/Nutrient Mix F12 culture medium containing 10% foetal calf serum (Biowhittaker), 1% sodium pyruvate, 1% L-glutamine, 1% non-essential amino acids, 0.4 mg/ml geneticin (G418) and 0.5% PenStrep, these products being provided by Gibco/BR1, except the calf serum. At 80% confluency, the cells are scraped off and the cell pellets are frozen at −80° C.
A tube of cells (approximately 70×10^6 cells) is thawed on ice and resuspended in 10 ml of binding buffer [25 mM HEPES, pH 7.0, 1 mM MgCl2, 1.5 mM CaCl2, 100 mM NaCl, 1 mM 1,10-phenanthroline and 1 tablet of Complete^TR (protease inhibitor from Roche) in 50 ml of buffer] using a polytron for 20 seconds. […] The nonspecific binding is defined by NDP-[…]MSH at 10^−7 M. The total binding is measured by the number of counts per minute in the presence of the radioligand alone. […]

human MC3 receptor = molecular target: T2, human MC3 receptor (Homo sapiens, UniProt P41968); test: Functional agonist assay: cAMP formation in CHO(dhfr-) cells expressing the human MC3 receptor; type: cell-based; conditions: 1 hour incubation, 50% of the maximum stimulation obtained with the compound, read-out: EC50 with respect to the MC3 receptor
T2 construct: expressed in transfected cells; host or cells: CHO(dhfr-)
Experimental: (§1) A functional assay is used to differentiate between the agonist activity and the antagonist activity. For this, the formation of cyclic adenosine monophosphate (cAMP) generated by activation of the MC3 receptor or of the MC4 receptor is assayed.
CHO(dhfr-) cells expressing the human MC3 receptor are seeded into MEM Eagle culture medium (Sigma) containing 10% of dialysed calf serum, 1% L-glutamine, 1% sodium pyruvate, 20 mg/500 ml L-proline, 0.3 mg/ml Geneticin and 0.5% PenStrep, these products being provided by Gibco/BRI, except for the dialysed calf serum (Cambrex) and the L-proline (Sigma).
(§2) The compounds to be tested (diluted in 10% DMSO), in an amount of 10 μl at a concentration of 10 times the final concentration, are added to the plates of cells (final volume=100 μl/well). After incubation for 1 hour (37° C., 5% CO2), the amount of cAMP is assayed using Tropix kits (Appelera) according to the supplier's documentation. The intrinsic activity of the compounds is calculated by comparing the stimulation of cAMP by these compounds to the stimulation induced by 30 nM of NDP[…]MSH (maximum of 100%). The EC50 value for the compounds corresponds to the concentration which produces 50% of the maximum stimulation obtained with this compound.

human MC4 receptor [2] = molecular target: T1, human MC4 receptor; test: Functional agonist assay: cAMP formation in CHO-K1 cells expressing the human MC4 receptor; type: cell-based; conditions: 1 hour incubation, 50% of the maximum stimulation obtained with the compound, read-out: EC50 with respect to the MC4 receptor
Experimental: as §1
CHO-K1 cells, expressing the human MC4 receptor at a moderate density (Euroscreen), are seeded into DMEM/Nutrient Mix F12 culture medium (Gibco/BR1) containing 10% of foetal calf serum, 0.5% sodium pyruvate, 1% L-glutamine, 1% non-essential amino acids, 200 mg/l hygromycin B and 0.5% PenStrep, these products being provided by Gibco/BR1, except the calf serum (Biowhittaker) and hygromycin B (Sigma).
as §2

T1 sequence (P32245 whole entry): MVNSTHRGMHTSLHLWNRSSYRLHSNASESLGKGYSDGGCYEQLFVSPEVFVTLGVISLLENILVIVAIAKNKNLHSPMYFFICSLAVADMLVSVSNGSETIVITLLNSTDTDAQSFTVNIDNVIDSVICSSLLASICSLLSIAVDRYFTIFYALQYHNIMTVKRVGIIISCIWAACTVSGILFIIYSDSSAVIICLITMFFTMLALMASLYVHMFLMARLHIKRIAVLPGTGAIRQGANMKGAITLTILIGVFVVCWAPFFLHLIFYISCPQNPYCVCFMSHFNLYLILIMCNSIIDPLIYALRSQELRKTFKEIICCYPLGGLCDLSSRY
T2 sequence (P41968 whole entry): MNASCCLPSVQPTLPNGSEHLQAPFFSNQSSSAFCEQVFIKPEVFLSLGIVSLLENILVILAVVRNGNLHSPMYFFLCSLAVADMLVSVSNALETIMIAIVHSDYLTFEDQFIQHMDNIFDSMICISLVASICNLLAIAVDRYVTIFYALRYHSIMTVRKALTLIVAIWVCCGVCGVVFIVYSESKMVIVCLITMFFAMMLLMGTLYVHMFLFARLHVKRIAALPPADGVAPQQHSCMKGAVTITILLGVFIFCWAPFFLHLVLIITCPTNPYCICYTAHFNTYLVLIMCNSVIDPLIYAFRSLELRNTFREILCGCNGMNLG

Row | SMILES | melting point | further results
1 | CCN(CC)C(=O)N(C1CCCCC1)C1CC2CCC(C1)N2C(=O)[C@@H](Cc1ccc(Cl)cc1)NC1CCNC1 (stereo partly shown) (as salt: HCl) | 220 °C | 
2 | CCN(CC)C(=O)N(C1CCCCC1)C1CC2CCC(C1)N2C(=O)[C@@H](Cc1ccc(Cl)cc1)NCCN (stereo partly shown) (as salt: HCl) | 105 °C | 
3 | CCN(CC)C(=O)N(C1CCCCC1)C1CC2CCC(C1)N2C(=O)[C@@H](Cc1ccc(Cl)cc1)NCCCN (stereo partly shown) (as salt: HCl) | 215 °C | 
4 | CCN(CC)C(=O)N(C1CCCCC1)C1CC2CCC(C1)N2C(=O)[C@@H](Cc1ccc(Cl)cc1)NC(C)/C=N/O (stereo partly shown) (as salt: HCl) | 132 °C | 
5 | CCN(CC)C(=O)N(C1CCCCC1)C1CC2CCC(C1)N2C(=O)[C@@H](Cc1ccc(Cl)cc1)NC1CNC1 (stereo partly shown) (as salt: HCl) | 170 °C | 
6 | CCN(CC)C(=O)N(C1CCCCC1)C1CC2CCC(C1)N2C(=O)[C@@H](Cc1ccc(Cl)cc1)NC1CCSC1 (stereo partly shown) (as salt: HCl) | > 200 °C | 
7 | CCN(CC)C(=O)N(C1CCCCC1)C1CC2CCC(C1)N2C(=O)[C@@H](Cc1ccc(Cl)cc1)NC1CCC(N)CC1 (stereo partly drawn) (as salt: HCl) [compound 3, N-{8-[N-(4-aminocyclohexyl)-4-chloro-D-phenylalanyl]-8-azabicyclo[3.2.1]oct-3-yl}-N-cyclohexyl-N′,N′-diethylurea] | 208 °C | 
8 | CCN(CC)C(=O)N(C1CCCCC1)C1CC2CCC(C1)N2C(=O)[C@@H](Cc1ccc(Cl)cc1)NC1CCC(N)CC1 (stereo partly drawn) [compound 3, N-{8-[N-(4-aminocyclohexyl)-4-chloro-D-phenylalanyl]-8-azabicyclo[3.2.1]oct-3-yl}-N-cyclohexyl-N′,N′-diethylurea] |  | IC50 (human MC4 receptor [1]): 280 nM; EC50 (human MC3 receptor): 330 nM; EC50 (human MC4 receptor [2]): 28 nM
